Measured values published in PMC11859423, “Fluorescent Probes to Image the KCa3.1 Channel in Tumor Cells” (Pharmaceutics, 2025).
Values joined by “and” are separate entries in the source; they are usually repeats but may differ in a detail not shown here. Equal entries are not always repeated. “Also recorded” adds a separate entry of the source.

What was measured:
[1] = target: T1, KCa3.1 channel in A549-3R cells (Homo sapiens, UniProt O15554); assay: Staining of permeabilized A549-3R cells (Protocol 5); format: cell-based
T1 construct: the non-small cell lung cancer cell line A549-3R with a high expression of the KCa3.1 channel was employed; endogenous in cells; host or cells: A549-3R cells
Protocol: After fixation of the cells (Section 2.10.2), 1 mL of permeabilization solution was added to the glass bottom dish. The cells were incubated for 30 min at 4 °C and afterwards washed three times with PBS. Subsequently, Protocol 1 was performed.
The specificity of the bodipy-labeled senicapoc derivative 10b was further analyzed via conducting co-staining experiments with antibodies. For staining with antibodies, A549-3R cells had to be permeabilized with saponin, since the antibody binds at the intracellular part of the ion channel only after entering the cell. […] For antibody-based immunofluorescence staining of the KCa3.1 channels of permeabilized A549-3R cells, various concentrations of the primary and secondary antibody were tested. Optimal images were obtained with a dilution of 1:300 for the primary antibody and 1:500 for the secondary antibody (see Figure S13, Supplementary Materials). The images obtained by immunofluorescence staining were analyzed as described above for the images with fluorescent probe 10b. This analysis led to a FWHM of 4.80 ± 0.83 pixels and a density of 1.75 ± 0.19 KCa3.1 channels/µm^2. […]

[2] = target: T1, KCa3.1 channel in A549-3R cells; assay: Co-staining of permeabilized A549-3R cells with fluorescent probe and antibodies (Protocols 7a and 7b); format: cell-based; settings: for Average Green (in % ± SD): green = channels stained with 10b; for Average Red (in % ± SD): red = channels stained with antibodies
Protocol: The cells were stained with antibodies as described in Protocol 6. Afterwards, the cells were stained with 300 µL of staining solution and the mixture was incubated for 10 min at 4 °C in a dark chamber. Subsequently, the cells were washed five times with 1 mL of PBS and were used for fluorescence microscopy.
The cells were treated as described in Protocol 5 to permeabilize the cells. Subsequently, staining solution was added and the cells were incubated for 10 min as described in Protocol 1. After washing the cells three times with PBS, Protocol 6 for the antibody staining was performed. Subsequently, the cells were used for fluorescence microscopy.
For the co-staining experiments, the permeabilized A549-3R cells were first incubated with the antibodies and subsequently stained with bodipy-labeled senicapoc derivative 10b for 10 min (protocol 7a). The images were analyzed with the FITC filter set to observe the fluorescence generated by 10b and the TRITC filter set to observe the fluorescence emitted by the secondary antibody (Figure 5). In a further experiment, the order of staining modalities was reversed, i.e., the cells were first labeled with fluorescent probe 10b for 10 min and second with the antibodies (Figure 6).
The obtained green, red and yellow dots were analyzed as described in the cell staining experiments above. The density of antibody-stained KCa3.1 channels (red dots) was higher than the density of KCa3.1 channels stained with bodipy-labeled senicapoc derivative 10b independent of the order of staining modality (Table 3). […] A successful co-staining was only counted when the distance between the signal peak maxima was ≤1 pixel.

[3] = target: T1, KCa3.1 channel in A549-3R cells; assay: Whole-cell patch clamp on A549-3R cells after channel opening with 1-EBIO; format: cell-based
Protocol: Bath solution: 140 mM NaCl, 5 mM KCl, 10 mM HEPES, 1 mM MgCl2 and 1 mM CaCl2 in an aqueous solution; pH = 7.4 with NaOH.
Pipette solution: 140 mM KCl, 10 mM HEPES, 1.3 mM EGTA, 1 mM MgCl2 and 1.217 mM CaCl2 in an aqueous solution; pH = 7.4 with NaOH; free Ca^2+ concentration of 1 µM.
1-EBIO solution: 100 mM stock solution of 1-ethylbenzimidazolone (1-EBIO) in DMSO was diluted with the bath solution to 50 µM.
Test solution: A 10 mM stock solution of imaging compound 10b in DMSO was diluted with the bath solution to 1 µM.
Senicapoc solution: 10 mM stock solution of senicapoc (3) in DMSO was diluted with bath solution to 1 µM.
Whole-cell patch clamp experiments were conducted at room temperature using borosilicate glass pipettes (GC150TF-10, Harvard Ltd., Boston, MA, USA) connected to an EPC-10 amplifier (HEKA Electronics, Lambrecht, Germany). […] Current density was calculated by dividing the current amplitude determined at the end of the depolarization voltage ramp to +60 mV by the membrane capacitance obtained from the slow capacitance compensation. The calculated free Ca^2+ concentration of the pipette solution was 1 µmol/L to obtain full activation of the KCa channels during the patch clamp experiments. […] A multi-barreled application pipette with a tip diameter of ~100 µm was used for test solution applications close to the recorded cell. […]

[4] = logP by HPLC retention time correlation; format: physicochemical; settings: standardized reversed phase HPLC system
Protocol: The logP values were recorded using HPLC analysis. Thus, the retention time of the test compound in a standardized reversed phase HPLC system is correlated with the retention times of compounds with known logP values.
In addition to the logD7.4 values, the logP values of the fluorescent probes were recorded by HPLC, i.e., after calibration of the method, the retention times were correlated with the logP values or the compounds [33]. […] Fluorescein-labeled ligands 21a and 21b are considerably more polar than the corresponding bodipy-labeled senicapoc derivatives.

HEK293 cells = assay: Negative control staining of HEK293 cells, which do not express KCa3.1 channels; format: cell-based; settings: HEK293 cells do not express KCa3.1 channels
Protocol: After fixation of the cells (Section 2.10.2), 300 µL of the 10 µM staining solution was added to the glass bottom dish. The cells were incubated for 10 min at 4 °C in a dark chamber. After incubation, the cells were washed five times with 1 mL of PBS and used subsequently for fluorescence microscopy.
In a second control experiment, azide precursor 7b without the senicapoc warhead was incubated with fixed A549-3R tumor cells.

CCC1=C(C)C2=C(c3ccc(OCCOCCn4cc(COc5ccc(C(C(N)=O)(c6ccccc6)c6ccc(F)cc6)cc5)nn4)cc3)c3c(C)c(CC)c(C)n3[B-](F)(OC)[N+]2=C1C (centres unmarked) [10b, 2-{4-[(1-{2-[4-(2,6-Diethyl-4-fluoro-4-methoxy-1,3,5,7-tetramethyl-4-bora-3a,4a-diaza-s-indacen-8-yl)phenoxy]ethoxyethyl}-1,2,3-triazol-4-yl)methoxy]phenyl}-2-(4-flluorophenyl)-2-phenylacetamide]
density of labeled KCa3.1 channels ([1]; permeabilized A549-3R cells): 1.15 ion channels/µm^2
staining pattern of permeabilized A549-3R cells ([1]; saponin permeabilization, Protocol 5): expected punctate staining pattern
Average Green (in % ± SD) ([2]; Protocol 7a (antibody first)): 41.5% and 41.5 ± 4.75%
Average Red (in % ± SD) ([2]; Protocol 7a (antibody first)): 58.5 ± 9.60%
Average Green (in % ± SD) ([2]; Protocol 7b (10b first)): 41.4 ± 5.56%
Average Red (in % ± SD) ([2]; Protocol 7b (10b first)): 58.6 ± 8.52%
co-staining of a single KCa3.1 channel with both imaging tools (yellow dots) ([2]; distance between signal peak maxima ≤1 pixel counted as co-staining): hardly observed
inhibitory activity compared with senicapoc ([3]; 1 µM each, channel opened with 1-EBIO): only slightly lower than the inhibitory activity of senicapoc
inhibition of the KCa3.1 ion channel current ([3]; 1 µM, channel opened with 50 µM 1-EBIO, whole A549-3R cells): inhibited the ion channel considerably; also recorded: inhibited the ion current
chromatographic logP [4]: 5.8
staining pattern of HEK293 cells (negative control) (HEK293 cells): a punctate staining pattern was not observed; also recorded: could not be observed
